Reference: article PMC10584170, “Machine learning-based phenotypic imaging to characterise the targetable biology of Plasmodium falciparum male gametocytes for the development of transmission-blocking antimalarials” (PLOS Pathogens, 2023)

Assays:
[1] = system: P. falciparum male gametocytes; assay: P. falciparum Dual Gamete Formation Assay (PfDGFA), male readout (exflagellation); type: cell-based, Plasmodium falciparum NF54; conditions: for Selectivity Ratio M: HepG2 Tox50 versus male IC50; for Average inhibition male (%) / % inhibition male (individual replicates) R1 / % inhibition male (individual replicates) R3 / % inhibition male (individual replicates) R4: 24h preincubation with gametocytes; for Average inhibition male (%): average of replicates; for % inhibition male (individual replicates) R1: replicate R1; for % inhibition male (individual replicates) R3: replicate R3; for % inhibition male (individual replicates) R4: replicate R4; for IC50: PfDGFA, 24 h incubation with gametocytes before induction, exflagellation readout, read-out: Male IC50; for HitlevelM: number of replicates with >50% inhibition in the male readout
In short: (§1)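 NF54 mature gametocytes (d14), cpd 24 h 37°C hypoxic gas; trigger: xanthurenic acid ookinete medium + Cy3 anti-Pfs25, 4°C 4 min → 28°C 4 min. Male: exflagellation centres, brightfield x6. Female: Pfs25+ gametes, fluorescence, +24 h 28°C dark.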

HepG2 cells = assay: HepG2 cytotoxicity counter-screen; conditions: cytotoxic activity against HepG2 cells
[2] = system: P. falciparum female gametocytes; assay: P. falciparum Dual Gamete Formation Assay (PfDGFA), female readout (Pfs25-positive female gametes); type: cell-based, Plasmodium falciparum NF54; conditions: for Selectivity ratio F: HepG2 Tox50 versus female IC50; for Average inhibition female (%) / % inhibition female (individual replicates) R1 / % inhibition female (individual replicates) R3 / % inhibition female (individual replicates) R4: 24h preincubation with gametocytes; for Average inhibition female (%): average of replicates; for % inhibition female (individual replicates) R1: replicate R1; for % inhibition female (individual replicates) R3: replicate R3; for % inhibition female (individual replicates) R4: replicate R4; for IC50: PfDGFA, 24 h incubation with gametocytes before induction, female gamete readout, read-out: Female IC50; for HitlevelF: number of replicates with >50% inhibition in the female readout
In short: as §1

## CCN(CC)CCOc1ccc(C(O)(C#CC(O)(c2ccc(C)cc2)c2ccc(OCCN(CC)CC)cc2)c2ccc(C)cc2)cc1 (stereo not shown) [TCMDC-137198]
[1]
  Selectivity Ratio M: 2.02
  IC50: 1.3 µM
[1]; PfDGFA at 2µM
  Average inhibition male (%): 80.0%
  % inhibition male (individual replicates) R1: 79.9%
  % inhibition male (individual replicates) R3: 84.8%
  % inhibition male (individual replicates) R4: 81.8%
[1]; 2µM
  HitlevelM: 4
HepG2 cells
  Tox50: 2.63 µM
[2]
  Selectivity ratio F: 0.55
  IC50: 4.73 µM
[2]; PfDGFA at 2µM
  Average inhibition female (%): 31.2%
  % inhibition female (individual replicates) R1: 31.1%
  % inhibition female (individual replicates) R3: 8.3%
  % inhibition female (individual replicates) R4: 48.8%
[2]; 2µM
  HitlevelF: 0

## CCN(CC)CCOc1ccc(C(O)(C#CC(O)(c2ccc(Br)cc2)c2ccc(OCCN(CC)CC)cc2)c2ccc(Br)cc2)cc1 (stereo not shown) [TCMDC-137199]
[1]
  Selectivity Ratio M: 3.23
  IC50: 0.61 µM
[1]; PfDGFA at 2µM
  Average inhibition male (%): 78.4%
  % inhibition male (individual replicates) R1: 76.2%
  % inhibition male (individual replicates) R3: 84.3%
  % inhibition male (individual replicates) R4: 81.8%
[1]; 2µM
  HitlevelM: 4
HepG2 cells
  Tox50: 1.99 µM
[2]
  Selectivity ratio F: 1.56
  IC50: 1.27 µM
[2]; PfDGFA at 2µM
  Average inhibition female (%): 19.7%
  % inhibition female (individual replicates) R1: 20.5%
  % inhibition female (individual replicates) R3: 18.5%
  % inhibition female (individual replicates) R4: 25.4%
[2]; 2µM
  HitlevelF: 0

## CCN(CC)CCOc1ccc(C(O)(C#CC(O)(c2ccc(OCCN(CC)CC)cc2)c2ccc([N+](=O)[O-])cc2)c2ccc([N+](=O)[O-])cc2)cc1 (stereo not shown) [TCMDC-137201]
[1]
  Selectivity Ratio M: 2.26
  IC50: 1.54 µM
[1]; PfDGFA at 2µM
  Average inhibition male (%): 85.9%
  % inhibition male (individual replicates) R1: 82.3%
  % inhibition male (individual replicates) R3: 94.6%
  % inhibition male (individual replicates) R4: 93.0%
[1]; 2µM
  HitlevelM: 4
HepG2 cells
  Tox50: 3.49 µM
[2]
  Selectivity ratio F: 1.17
  IC50: 2.99 µM
[2]; PfDGFA at 2µM
  Average inhibition female (%): 55.9%
  % inhibition female (individual replicates) R1: 46.7%
  % inhibition female (individual replicates) R3: 67.0%
  % inhibition female (individual replicates) R4: 64.5%
[2]; 2µM
  HitlevelF: 2

## CCCCOc1ccc(CNCCCCCCNCc2ccc(OCCCC)c3ccccc23)c2ccccc12.CS(=O)(=O)O [TCMDC-137281]
[1]
  Selectivity Ratio M: 2.64
  IC50: 0.55 µM
[1]; PfDGFA at 2µM
  Average inhibition male (%): 88.9%
  % inhibition male (individual replicates) R1: 95.9%
  % inhibition male (individual replicates) R3: 90.2%
  % inhibition male (individual replicates) R4: 93.5%
[1]; 2µM
  HitlevelM: 4
HepG2 cells
  Tox50: 1.45 µM
[2]
  Selectivity ratio F: 2.64
  IC50: 0.55 µM
[2]; PfDGFA at 2µM
  Average inhibition female (%): 94.7%
  % inhibition female (individual replicates) R1: 94.0%
  % inhibition female (individual replicates) R3: 97.9%
  % inhibition female (individual replicates) R4: 90.5%
[2]; 2µM
  HitlevelF: 4

## CS(=O)(=O)O.FC(F)(F)COc1ccc(CCNCCCCNCCc2ccc(OCC(F)(F)F)c3ccccc23)c2ccccc12 [TCMDC-137282]
[1]; 2µM
  Average inhibition male (%): 98.5%
  % inhibition male (individual replicates) R1: 98.3%
  % inhibition male (individual replicates) R4: 97.4%
[1]
  Selectivity Ratio M: 4.68
  IC50: 0.51 µM
HepG2 cells
  Tox50: 2.39 µM
[2]; 2µM
  Average inhibition female (%): 56.0%
  % inhibition female (individual replicates) R1: 58.1%
  % inhibition female (individual replicates) R3: 59.1%
  % inhibition female (individual replicates) R4: 54.8%
[2]
  Selectivity ratio F: 1.73
  IC50: 1.38 µM

## COc1ccc2c(CNCCCCCCNCc3c(OC)ccc4cc(OC)ccc34)c(OC)ccc2c1.CS(=O)(=O)O [TCMDC-137300]
[1]; 2µM
  Average inhibition male (%): 90.0%
  % inhibition male (individual replicates) R1: 98.2%
  % inhibition male (individual replicates) R3: 95.7%
  % inhibition male (individual replicates) R4: 96.8%
[1]
  Selectivity Ratio M: 2.01
  IC50: 1.81 µM
HepG2 cells
  Tox50: 3.63 µM
[2]; 2µM
  Average inhibition female (%): 77.0%
  % inhibition female (individual replicates) R1: 80.6%
  % inhibition female (individual replicates) R3: 93.8%
  % inhibition female (individual replicates) R4: 84.0%
[2]
  Selectivity ratio F: 0.75
  IC50: 4.85 µM

## CS(=O)(=O)O.FC(F)(F)COc1ccc2ccccc2c1CCNCCCCNCCc1c(OCC(F)(F)F)ccc2ccccc12 [TCMDC-137317]
[1]
  Selectivity Ratio M: 0.53
  IC50: 1.52 µM
[1]; PfDGFA at 2µM
  Average inhibition male (%): 88.2%
  % inhibition male (individual replicates) R1: 92.7%
  % inhibition male (individual replicates) R3: 68.3%
  % inhibition male (individual replicates) R4: 96.2%
[1]; 2µM
  HitlevelM: 4
HepG2 cells
  Tox50: 0.8 µM
[2]
  Selectivity ratio F: 0.26
  IC50: 3.05 µM
[2]; PfDGFA at 2µM
  Average inhibition female (%): 40.6%
  % inhibition female (individual replicates) R1: 30.1%
  % inhibition female (individual replicates) R3: 13.1%
  % inhibition female (individual replicates) R4: 36.4%
[2]; 2µM
  HitlevelF: 1

## C=CCOc1ccc2ccccc2c1CNCCCCCCNCc1c(OCC=C)ccc2ccccc12.CS(=O)(=O)O [TCMDC-137340]
[1]
  Selectivity Ratio M: 1.99
  IC50: 1.93 µM
[1]; PfDGFA at 2µM
  Average inhibition male (%): 87.7%
  % inhibition male (individual replicates) R1: 90.7%
  % inhibition male (individual replicates) R3: 68.3%
  % inhibition male (individual replicates) R4: 95.6%
[1]; 2µM
  HitlevelM: 4
HepG2 cells
  Tox50: 3.85 µM
[2]
  Selectivity ratio F: 1.38
  IC50: 2.79 µM
[2]; PfDGFA at 2µM
  Average inhibition female (%): 45.4%
  % inhibition female (individual replicates) R1: 35.2%
  % inhibition female (individual replicates) R3: 31.1%
  % inhibition female (individual replicates) R4: 51.0%
[2]; 2µM
  HitlevelF: 2

## Cl.N=C(NCCCCC1CCCCC1)c1cccc(C(=N)NCCCCC2CCCCC2)n1 [TCMDC-137452]
[1]; 2µM
  Average inhibition male (%): 99.3%
  % inhibition male (individual replicates) R1: 93.4%
  % inhibition male (individual replicates) R4: 104.5%
[1]
  Selectivity Ratio M: 2.02
  IC50: 1.32 µM
HepG2 cells
  Tox50: 2.66 µM
[2]; 2µM
  Average inhibition female (%): 47.7%
  % inhibition female (individual replicates) R1: 57.8%
  % inhibition female (individual replicates) R3: 31.9%
  % inhibition female (individual replicates) R4: 45.9%
[2]
  Selectivity ratio F: 1.43
  IC50: 1.86 µM

## COc1cc(CNCCCCCCNCc2cc(OC)c3ccccc3c2OC)c(OC)c2ccccc12.CS(=O)(=O)O [TCMDC-137502]
[1]
  Selectivity Ratio M: 3.09
  IC50: 1.21 µM
[1]; PfDGFA at 2µM
  Average inhibition male (%): 85.1%
  % inhibition male (individual replicates) R1: 95.4%
  % inhibition male (individual replicates) R3: 87.5%
  % inhibition male (individual replicates) R4: 90.2%
[1]; 2µM
  HitlevelM: 4
HepG2 cells
  Tox50: 3.76 µM
[2]
  Selectivity ratio F: 1.24
  IC50: 3.03 µM
[2]; PfDGFA at 2µM
  Average inhibition female (%): 71.8%
  % inhibition female (individual replicates) R1: 79.7%
  % inhibition female (individual replicates) R3: 78.6%
  % inhibition female (individual replicates) R4: 84.0%
[2]; 2µM
  HitlevelF: 3

## Clc1ccc(/N=C(/NCCCCCCCN/C(=N\c2ccc(Cl)cc2)Nc2ccc(Cl)cc2)Nc2ccc(Cl)cc2)cc1 [TCMDC-137529]
[1]; 2µM
  Average inhibition male (%): 95.0%
  % inhibition male (individual replicates) R1: 95.9%
  % inhibition male (individual replicates) R4: 94.9%
[1]
  Selectivity Ratio M: 2.06
  IC50: 1.12 µM
HepG2 cells
  Tox50: 2.3 µM
[2]; 2µM
  Average inhibition female (%): 51.0%
  % inhibition female (individual replicates) R1: 61.8%
  % inhibition female (individual replicates) R3: 39.3%
  % inhibition female (individual replicates) R4: 54.5%
[2]
  Selectivity ratio F: 1.6
  IC50: 1.44 µM
